From patent US4831043A, “Dopaminergic benzimidazol-2-ones” (Roussel Uclaf, priority 1987, dated 1989)
Structures can show the parent of a compound that is named as a salt. Where two headings read alike, the source gives them in different places.

Assays:
[1] = system: mice; experiment: Study of the acute toxicity (LDO, oral route); format: in vivo
Method: (3) Study of the acute toxicity
The lethal doses LDO of the different compounds tested were evaluated after administration by oral route in mice. The maximum dose not causing any mortality in 8 days was called LDO and the following results were obtained: […]

[2] = target: T1, dopaminergic receptors (Rattus norvegicus, UniProt P61169); experiment: Affinity for the dopaminergic receptors (displacement of 3H spiroperidol, striated bodies); format: binding, rats
T1 construct: The striated bodies removed from the brains of 6 male rats; from tissue; host or cells: rat striatum (striated bodies), membrane preparation
Method: (4) Affinity for the dopaminergic receptors
The striated bodies removed from the brains of 6 male rats weighing an average of 150 g were homogenized to the twentieth (weight/volume) in 0.32M sucrose. After centrifuging the homogenized mixture at 1,000 g for 10 minutes at 0° C. the supernatant was centrifuged at 30,000 g for 15 minutes at +4° C. The residue was taken up in 25 ml of Tris HCl 50 mM buffer, pH 7.7, and centrifuged at 30,000 g for 15 minutes at +4° C. The new residue was taken up in 50 ml of Krebs Tris HCl buffer pH 7.3, and the suspension was pre-incubated fo 10 minutes at 37° C. It was then incubated for 20 minutes on a water-bath at +37° C. in the presence of 3H spinoperidol alone, with an excess of haloperidol and with increasing concentrations of the product under test. The incubated suspensions were filtered on Whatman GF/C and the filters were washed three times with 5 ml of Tris HCl 50 mM buffer. The radio-activity of the filters was measured by liquid scintillation.
The non-specific fixation were determined in parallel by incubation of 3H spiroperidol in the presence of an excess of haloperidol and the following results were obtained. The result was expressed directly in 50% inhibiting concentrations, (IC50 : concentration of product studied, expressed in nM, necessary to displace 50% of the specific radio-activity fixed on the receptor studied).

[3] = system: arterial pressure; experiment: Study of the hypotensive activity on anesthetized "normotendu" rat; format: in vivo, Male Sprague-Dawley rats (CR); conditions: jugular vein injection
Method: (5) Study of the hypotensive activity on anesthetized "normotendu" rat.
Male Sprague-Dawley rats (CR) were anesthetized intraperitoneally with sodium pentobarbital (60 mg/Kg). A jugular vein was catheterized for injection of the product and a carotid artery was catheterized for registration of the arterial pressure. The product to be tested was dissolved in 10% of ethanol and then injected at a volume of 1 ml/kg. […] The following table indicates the variations of the arterial pressure after administration of the product tested expressed as a percentage of the initial control arterial pressure.

[4] = system: average arterial pressure; experiment: Test of revealing a direct vasodilatation activity (demedulated rats under angiotensine II perfusion); format: in vivo, Rats of Sprague-Dawley strain; conditions: Rattus norvegicus, intravenous cumulative doses, tested between 0.001 and 1 mg/kg, read-out: dose from which vasodilatation effect starts
Method: Rats of Sprague-Dawley strain with a weight of 320-350 g were anesthetized with pentobarbital (50 mg/kg by interperitoneal injection). After insertion of a carotid catheter to measure the arterial pressure and a jugular catheter for the injection of the compounds to be stidied as well as the eventual antagonists, the animals were demedulated by a steel rod which was introduced by the right orbital hole and passed down the whole length of the spinal marrow. The animals were then placed immediately under assisted respiration and some minutes after stabilization of arterial pressure, the animals received an intravenous perfusion of angiotensine II of 0.50 micrograms/kg per minute to increase their average pressure by about 100 mm of mercury. After obtaining a plateau, the test compound was injected intravenously every 2 minutes and in cumulative doses. The percentages of fall of the average arterial pressure so obtained enabled a curve of dose-response to be drawn reflecting the vasodilatation activity of the molecule studied. Previous treatment of the animals by different antagonists enabled the mechanism of action of this molecule to be distinguished. The products were tested between 0.001 and 1 mg/kg and domperidone and propanolol were used as antagonists.

[5] = system: nigrostriated dopaminergic bundle; experiment: Rotational behaviour after unilateral lesion of the nigrostriated bundle by 6-hydroxydopamine; format: in vivo, rats
Method: (1) Rotational behaviour after unilateral lesion of the nigrostriated bundle by 6-hydroxydopamine.
Male rats of about 220 g weight were injured in the nigrostriated dopaminergic bundle by a modified Ungerstedt's method [Acta. physiol. Scand. 1971, 82 suppl. 367-69 93] by unilateral injection of […] of 6-hydroxydopamine hydrochloride in solution in 4 microliters of physiological solution containing 0.4 mg/ml of ascorbic acid. The products studied were administered intraperitoneally and the treated animals were placed individually in a rotameter which enabled the counting of the number of rotations made by each animal in the direction opposite to that of the injured side.

T1 sequence (P61169 whole entry): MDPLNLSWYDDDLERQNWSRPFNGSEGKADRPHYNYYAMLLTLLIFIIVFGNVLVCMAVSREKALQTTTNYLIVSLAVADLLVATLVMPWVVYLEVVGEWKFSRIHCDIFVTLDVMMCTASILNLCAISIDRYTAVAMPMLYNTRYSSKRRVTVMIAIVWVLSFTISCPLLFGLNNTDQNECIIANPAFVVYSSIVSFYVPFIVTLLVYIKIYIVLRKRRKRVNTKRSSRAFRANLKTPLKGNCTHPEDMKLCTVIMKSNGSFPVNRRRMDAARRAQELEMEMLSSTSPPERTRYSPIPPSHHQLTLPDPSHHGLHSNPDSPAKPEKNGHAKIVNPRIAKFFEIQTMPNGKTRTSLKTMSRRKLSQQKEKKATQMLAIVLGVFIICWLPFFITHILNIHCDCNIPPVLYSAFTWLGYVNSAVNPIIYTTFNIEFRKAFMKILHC

Compound: O=c1[nH]c2cccc(C3CCCNC3)c2[nH]1 (stereo not shown) [Example 1, 1,3-dihydro-4-(3-piperidinyl)-2H-benzimidazol-2-one]
- LDO (maximum dose not causing any mortality in 8 days) [1]: greater than 400 mg/kg
- IC50 ([2]; rat striated bodies, 3H spiroperidol, 20 minutes at 37° C., pH 7.3, read-out: IC50 (displacement of 50% of the specific radio-activity fixed on the receptor)): 172 nM

Compound: Br.O=c1[nH]c2c(O)ccc(C3CCCNC3)c2[nH]1 (stereo not shown) [Example 4, 1,3-dihydro-4-hydroxy-7-(3-piperidinyl)-2H-benzimidazol-2-one hydrobromide]
- variation of the arterial pressure 30 min. after administration ([3]; dose 0.1 mg/kg): -17 percentage of the initial cont
- LDO (maximum dose not causing any mortality in 8 days) [1]: greater than 400 mg/kg
- IC50 [2]: 300 nM
- minimal effective dose [4]: 0.03 mg/kg

Compound: Br.CCCN1CCCC(c2ccc(O)c3[nH]c(=O)[nH]c23)C1 (stereo not shown) [Example 5, 1,3-dihydro-4-hydroxy-7-(1-propyl-3-piperidinyl)-2H-benzimidazol-2-one hydrobromide]
- variation of the arterial pressure 5 min. after administration ([3]; dose 1 mg/kg): -19 percentage of the initial cont
- variation of the arterial pressure 30 min. after administration ([3]; dose 1 mg/kg): -19 percentage of the initial cont
- variation of the arterial pressure 5 min. after administration ([3]; dose 10 mg/kg): -23 percentage of the initial cont
- variation of the arterial pressure 30 min. after administration ([3]; dose 10 mg/kg): -21 percentage of the initial cont

Compound: CN1CCCC(c2ccc(O)c3[nH]c(=O)[nH]c23)C1 (stereo not shown) [Example 6, 1,3-dihydro-4-hydroxy-7-(1-methyl-3-piperidinyl)-2H-benzimidazol-3-one hydrobromide]
- minimal effective dose ([5]; Rattus norvegicus, ip, read-out: dose from which rotational behavior is induced): 10 mg/kg
- rotational behavior (activity) ([5]; rats, intraperitoneal, dose of 5 mg/kg): inactive
- central dopaminergic agonist activity ([5]; rats, intraperitoneal, conclusion from rotation model of very great sensitivity): weak
